Experimental findings from patent US20080161289A1, “Fused Thiazole Derivatives Having Affinity for the Histamine H3 Receptor” (Glaxo Group Limited, priority 2005, published 2008) are described below.

In this assay the target is T1, histamine H3 receptors (Homo sapiens, UniProt Q9Y5N1).
T1 construct: expressed in transfected cells; host or cells: CHO K1 cells carrying pSwitch, transfected with pGeneH3, induced with mifepristone; clone 3H3; membrane preparation
T1 sequence (Q9Y5N1 whole entry): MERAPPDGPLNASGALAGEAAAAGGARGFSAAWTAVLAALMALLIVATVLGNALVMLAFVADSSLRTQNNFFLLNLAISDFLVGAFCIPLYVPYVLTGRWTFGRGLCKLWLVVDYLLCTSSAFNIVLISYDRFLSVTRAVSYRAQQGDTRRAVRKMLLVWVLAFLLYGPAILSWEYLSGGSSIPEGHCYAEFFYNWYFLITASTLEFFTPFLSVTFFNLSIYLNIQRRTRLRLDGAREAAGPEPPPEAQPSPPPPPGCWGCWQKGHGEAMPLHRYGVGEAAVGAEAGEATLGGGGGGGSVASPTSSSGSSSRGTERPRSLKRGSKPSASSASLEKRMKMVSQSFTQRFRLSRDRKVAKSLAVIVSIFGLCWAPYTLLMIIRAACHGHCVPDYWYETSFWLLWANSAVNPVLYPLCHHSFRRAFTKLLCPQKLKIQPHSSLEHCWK
The assay is described as follows: Histamine H3 functional antagonist assay ([35S]-GTPγS SPA on membranes from H3 cells). The following applies: hydrochloride salts tested; H3 functional antagonist assay using membrane prepared from cultured H3 cells; averages of a number of experiments; read-out: functional pKi (fpKi) (converted). The class given is biochemical. The text has this: A membrane preparation containing histamine H3 receptors may be prepared in accordance with the following procedures:
(i) Generation of Histamine H3 Cell Line
DNA encoding the human histamine H3 gene (Huvar, A. et al. (1999) Mol. Pharmacol. 55(6), 1101-1107) was cloned into a holding vector, pCDNA3.1 TOPO (InVitrogen) and its cDNA was isolated from this vector by restriction digestion of plasmid DNA with the enzymes BamHI and Not-1 and ligated into the inducible expression vector pGene (InVitrogen) digested with the same enzymes. The GeneSwitch™ system (a system where in transgene expression is switched off in the absence of an inducer and switched on in the presence of an inducer) was performed as described in U.S. Pat. Nos. 5,364,791; 5,874,534; and 5,935,934. Ligated DNA was transformed into competent DH5α E. coli host bacterial cells and plated onto Luria Broth (LB) agar containing Zeocin™ (an antibiotic which allows the selection of cells expressing the sh ble gene which is present on pGene and pSwitch) at 50 μg ml^−1. Colonies containing the re-ligated plasmid were identified by restriction analysis. DNA for transfection into mammalian cells was prepared from 250 ml cultures of the host bacterium containing the pGeneH3 plasmid and isolated using a DNA preparation kit (Qiagen Midi-Prep) as per manufacturers guidelines (Qiagen).
CHO K1 cells previously transfected with the pSwitch regulatory plasmid (InVitrogen) were seeded at 2×10e6 cells per T75 flask in Complete Medium, containing Hams F12 (GIBCOBRL, Life Technologies) medium supplemented with 10% v/v dialysed foetal bovine serum, L-glutamine, and hygromycin (100 μg ml^−1), 24 hours prior to use. Plasmid DNA was transfected into the cells using Lipofectamine plus according to the manufacturers guidelines (InVitrogen). 48 hours post transfection cells were placed into complete medium supplemented with 500 μg ml^−1 Zeocin™.
10-14 days post selection 10 nM Mifepristone (InVitrogen), was added to the culture medium to induce the expression of the receptor. 18 hours post induction cells were detached from the flask using ethylenediamine tetra-acetic acid (EDTA; 1:5000; InVitrogen), following several washes with phosphate buffered saline pH 7.4 and resuspended in Sorting Medium containing Minimum Essential Medium (MEM), without phenol red, and supplemented with Earles salts and 3% Foetal Clone II (Hyclone). Approximately 1×10e7 cells were examined for receptor expression by staining with a rabbit polyclonal antibody, 4a, raised against the N-terminal domain of the histamine H3 receptor, incubated on ice for 60 minutes, followed by two washes in sorting medium. Receptor bound antibody was detected by incubation of the cells for 60 minutes on ice with a goat anti rabbit antibody, conjugated with Alexa 488 fluorescence marker (Molecular Probes). Following two further washes with Sorting Medium, cells were filtered through a 50 μm Filcon™ (BD Biosciences) and then analysed on a FACS Vantage SE Flow Cytometer fitted with an Automatic Cell Deposition Unit. Control cells were non-induced cells treated in a similar manner. Positively stained cells were sorted as single cells into 96-well plates, containing Complete Medium containing 500 μg ml^−1 Zeocin™ and allowed to expand before reanalysis for receptor expression via antibody and ligand binding studies. One clone, 3H3, was selected for membrane preparation.
(ii) Membrane Preparation from Cultured Cells
All steps of the protocol are carried out at 4° C. and with pre-cooled reagents. The cell pellet is resuspended in 10 volumes of homogenisation buffer (50 mM N-2-hydroxyethylpiperazine-N′-2-ethanesulfonic acid (HEPES), 1 mM ethylenediamine tetra-acetic acid (EDTA), pH 7.4 with KOH, supplemented with 10e-6M leupeptin (acetyl-leucyl-leucyl-arginal; Sigma L2884), 25 μg/ml bacitracin (Sigma B0125), 1 mM phenylmethylsulfonyl fluoride (PMSF) and 2×10e-6M pepstain A (Sigma)). […]
Regarding `Cc1ccccc1C(=O)N1CCC(c2nc3c(s2)CCN(C2CCC2)CC3)CC1` [Example E78, 6-Cyclobutyl-2-{1-[(2-methylphenyl)carbonyl]-4-piperidinyl}-5,6,7,8-tetrahydro-4H-[1,3]thiazolo[4,5-d]azepine], the Ki is less than 0.316 nM.

`NC(=O)c1ccc(-c2nc3c(s2)CCN(C2CCC2)CC3)cn1` [Example E100, 5-(6-Cyclobutyl-5,6,7,8-tetrahydro-4H-[1,3]thiazolo[4,5-d]azepin-2-yl)-2-pyridinecarboxamide]: the Ki was less than 1.26 nM.

Turning to `c1cc(N2CCCCC2)ncc1-c1nc2c(s1)CCN(C1CCC1)CC2` [Example E55, 6-Cyclobutyl-2-[6-(1-piperidinyl)-3-pyridinyl]-5,6,7,8-tetrahydro-4H-[1,3]thiazolo[4,5-d]azepine], the Ki was less than 1.26 nM.

Consider `CN1CCN(c2ccc(-c3nc4c(s3)CCN(C3CCCC3)CC4)cc2)C1=O` [Example E28, 1-[4-(6-Cyclopentyl-5,6,7,8-tetrahydro-4H-[1,3]thiazolo[4,5-d]azepin-2-yl)phenyl]-3-methyl-2-imidazolidinone], for which the Ki was less than 0.316 nM.

Regarding `Cc1cc(C(=O)N2CCC(c3nc4c(s3)CCN(C3CCC3)CC4)CC2)nn1C` [Example E88, 6-Cyclobutyl-2-{1-[(1,5-dimethyl-1H-pyrazol-3-yl)carbonyl]-4-piperidinyl}-5,6,7,8-tetrahydro-4H-[1,3]thiazolo[4,5-d]azepine], the Ki was less than 1.26 nM.

Consider `O=C1NCCN1c1ccc(-c2nc3c(s2)CCN(C2CCC2)CC3)cc1` [Example E27, 1-[4-(6-Cyclobutyl-5,6,7,8-tetrahydro-4H-[1,3]thiazolo[4,5-d]azepin-2-yl)phenyl]-2-imidazolidinone], for which the Ki was less than 1.26 nM.

As for `Cc1cnc(C(=O)N2CCC(c3nc4c(s3)CCN(C3CCC3)CC4)CC2)cn1` [Example E12, 6-Cyclobutyl-2-{1-[(5-methyl-2-pyrazinyl)carbonyl]-4-piperidinyl}-5,6,7,8-tetrahydro-4H-[1,3]thiazolo[4,5-d]azepine], the Ki was less than 1.26 nM.

On to `CC(C)CN1CCc2nc(-c3ccc(N4CCN(C)C4=O)cc3)sc2CC1` [Example E32, 1-Methyl-3-{4-[6-(2-methylpropyl)-5,6,7,8-tetrahydro-4H-[1,3]thiazolo[4,5-d]azepin-2-yl]phenyl}-2-imidazolidinone], for which the Ki is less than 0.316 nM.

As for `Cc1cccc(N2CCC(c3nc4c(s3)CCN(C3CCC3)CC4)C2)n1` (racemic) [Example E114, (±)-6-Cyclobutyl-2-[1-(6-methyl-2-pyridinyl)-3-pyrrolidinyl]-5,6,7,8-tetrahydro-4H-[1,3]thiazolo[4,5-d]azepine], the Ki was less than 0.316 nM.

Turning to `Cc1cccnc1C(=O)N1CCC(c2nc3c(s2)CCN(C2CCC2)CC3)CC1` [Example E83, 6-Cyclobutyl-2-{1-[(3-methyl-2-pyridinyl)carbonyl]-4-piperidinyl}-5,6,7,8-tetrahydro-4H-[1,3]thiazolo[4,5-d]azepine], the Ki is less than 1.26 nM.

With `N#Cc1ccc(N2CCC(c3nc4c(s3)CCN(C3CCC3)CC4)CC2)cc1` [Example E67, 4-[4-(6-Cyclobutyl-5,6,7,8-tetrahydro-4H-[1,3]thiazolo[4,5-d]azepin-2-yl)-1-piperidinyl]benzonitrile], the Ki is less than 0.316 nM.

As for `Cc1cccc(C(=O)N2CCC(c3nc4c(s3)CCN(C3CCC3)CC4)CC2)c1` [Example E82, 6-Cyclobutyl-2-{1-[(3-methylphenyl)carbonyl]-4-piperidinyl}-5,6,7,8-tetrahydro-4H-[1,3]thiazolo[4,5-d]azepine], the Ki is less than 1.26 nM.

For the compound `c1cc(-c2nc3c(s2)CCN(C2CCC2)CC3)ccc1-c1csnn1` [Example E5, 6-Cyclobutyl-2-[4-(1,2,3-thiadiazol-4-yl)phenyl]-5,6,7,8-tetrahydro-4H-[1,3]thiazolo[4,5-d]azepine], the Ki was less than 1.26 nM.

On to `N#Cc1ccc(N2CCC(c3nc4c(s3)CCN(C3CCC3)CC4)C2)cn1` (single isomer, unassigned; (+)) [Example E37, (+)-5-[3-(6-Cyclobutyl-5,6,7,8-tetrahydro-4H-[1,3]thiazolo[4,5-d]azepin-2-yl)-1-pyrrolidinyl]-2-pyridinecarbonitrile], for which the Ki is less than 1.26 nM.

`Cc1cc(C(=O)N2CCC(c3nc4c(s3)CCN(C3CCC3)CC4)CC2)ccn1` [Example E93, 6-Cyclobutyl-2-{1-[(2-methyl-4-pyridinyl)carbonyl]-4-piperidinyl}-5,6,7,8-tetrahydro-4H-[1,3]thiazolo[4,5-d]azepine]: the Ki was less than 1.26 nM.

As to `CN1CCN(c2ccc(-c3nc4c(s3)CCN(C3CCC3)CC4)cc2)C1=O` [Example E26, 1-[4-(6-Cyclobutyl-5,6,7,8-tetrahydro-4H-[1,3]thiazolo[4,5-d]azepin-2-yl)phenyl]-3-methyl-2-imidazolidinone], the Ki is less than 0.316 nM.

In the case of `CNC(=O)c1ccc(-c2nc3c(s2)CCN(C2CCC2)CC3)cc1` [Example E43, 4-(6-Cyclobutyl-5,6,7,8-tetrahydro-4H-[1,3]thiazolo[4,5-d]azepin-2-yl)-N-methylbenzamide], the Ki is less than 1.26 nM.

As to `N#Cc1ccc(C(=O)N2CCC(c3nc4c(s3)CCN(C3CCC3)CC4)C2)cc1` (centres unmarked) [Example E105, 4-{[3-(6-Cyclobutyl-5,6,7,8-tetrahydro-4H-[1,3]thiazolo[4,5-d]azepin-2-yl)-1-pyrrolidinyl]carbonyl}benzonitrile], the Ki was less than 1.26 nM.

Consider `N#Cc1ccc(N2CCC(c3nc4c(s3)CCN(C3CCC3)CC4)C2)cn1` (racemic) [Example E35, (±)-5-[3-(6-Cyclobutyl-5,6,7,8-tetrahydro-4H-[1,3]thiazolo[4,5-d]azepin-2-yl)-1-pyrrolidinyl]-2-pyridinecarbonitrile], for which the Ki is less than 1.26 nM.

Consider `O=S1(=O)CCCN1c1ccc(-c2nc3c(s2)CCN(C2CCC2)CC3)cc1` [Example E99, 6-Cyclobutyl-2-[4-(1,1-dioxido-2-isothiazolidinyl)phenyl]-5,6,7,8-tetrahydro-4H-[1,3]thiazolo[4,5-d]azepine], for which the Ki is less than 1.26 nM.

Consider `c1cc(N2CCOCC2)ncc1-c1nc2c(s1)CCN(C1CCC1)CC2` [Example E108, 6-Cyclobutyl-2-[6-(4-morpholinyl)-3-pyridinyl]-5,6,7,8-tetrahydro-4H-[1,3]thiazolo[4,5-d]azepine], for which the Ki is less than 1.26 nM.

Consider `N#Cc1ccc(-c2nc3c(s2)CCN(C2CCC2)CC3)cc1` [Example E48, 4-(6-Cyclobutyl-5,6,7,8-tetrahydro-4H-[1,3]thiazolo[4,5-d]azepin-2-yl)benzonitrile], for which the Ki was less than 1.26 nM.

As for `CN1CCN(c2ccc(-c3nc4c(s3)CCN(CC3CC3)CC4)cc2)C1=O` [Example E31, 1-{4-[6-(Cyclopropylmethyl)-5,6,7,8-tetrahydro-4H-[1,3]thiazolo[4,5-d]azepin-2-yl]phenyl}-3-methyl-2-imidazolidinone], the Ki was less than 1.26 nM.

Turning to `c1ccc(-c2nc3c(s2)CCN(C2CCC2)CC3)cc1` [Example E42, 6-Cyclobutyl-2-phenyl-5,6,7,8-tetrahydro-4H-[1,3]thiazolo[4,5-d]azepine], the Ki was less than 31.6 nM.

Consider `O=C(c1ccc(C(F)(F)F)nc1)N1CCC(c2nc3c(s2)CCN(C2CCC2)CC3)CC1` [Example E10, 6-Cyclobutyl-2-(1-{[6-(trifluoromethyl)-3-pyridinyl]carbonyl}-4-piperidinyl)-5,6,7,8-tetrahydro-4H-[1,3]thiazolo[4,5-d]azepine], for which the Ki is less than 31.6 nM.

On to `Cc1ccc(C(=O)N2CCC(c3nc4c(s3)CCN(C3CCC3)CC4)CC2)cn1` [Example E8, 6-Cyclobutyl-2-{1-[(6-methyl-3-pyridinyl)carbonyl]-4-piperidinyl}-5,6,7,8-tetrahydro-4H-[1,3]thiazolo[4,5-d]azepine], for which the Ki is less than 1.26 nM.
